“Also recorded” adds a separate entry of the source.
Tested on: influenza A/PR/8/34
Design: species or system C57/BL6 mice
Conditions: mouse, in vivo

In the case of `CN[C@H]1CC[C@@H](c2ccc(Cl)c(Cl)c2)c2ccccc21` [Sertraline], the “survival rate, result in words” value is reported as “dose dependant increase in survival rate; also recorded: improves survival rate”.
